Data taken from ChEMBL document CHEMBL4811248, “Discovery of imidazopyrrolopyridines derivatives as novel and selective inhibitors of JAK2” (Eur J Med Chem, 2021).
≈ marks a conversion by molar mass, not a printed value.

How the values were obtained:
[1] = Oral bioavailability in Lewis rat at 5 mg/kg measured up to 24 hrs by LC-MS/MS method; type: ADME, organism-based; settings: in vivo
[2] = Metabolic stability in rat liver microsomes assessed as compound remaining at 1 uM measured up to 120 mins in presence of NADPH by HPLC-MS/MS analysis; type: ADME, Microsome; settings: read-out: Stabilty
[3] = Half life in Lewis rat at 5 mg/kg, po measured up to 24 hrs by LC-MS/MS method; type: ADME, organism-based; settings: in vivo
[4] = Clearance in Lewis rat at 1 mg/kg, iv measured up to 24 hrs by LC-MS/MS method; type: ADME, organism-based; settings: in vivo
[5] = Aqueous solubility of compound by HPLC analysis; type: physicochemical; settings: buffer
[6] = MRT in Lewis rat at 1 mg/kg, iv measured up to 24 hrs by LC-MS/MS method; type: ADME, organism-based; settings: in vivo
[7] = Tmax in Lewis rat at 5 mg/kg, po measured up to 24 hrs by LC-MS/MS method; type: ADME, organism-based; settings: in vivo
[8] = AUC in Lewis rat at 1 mg/kg, iv measured up to 24 hrs by LC-MS/MS method; type: ADME, organism-based; set-up: route intravenous, dose 1 mg/kg, time <=24; settings: in vivo
[9] = MRT in Lewis rat at 5 mg/kg, po measured up to 24 hrs by LC-MS/MS method; type: ADME, organism-based; settings: in vivo
[10] = AUC in Lewis rat at 5 mg/kg, po measured up to 24 hrs by LC-MS/MS method; type: ADME, organism-based; set-up: route oral, dose 5 mg/kg, time <=24; settings: in vivo
[11] = Cmax in Lewis rat at 5 mg/kg, po measured up to 24 hrs by LC-MS/MS method; type: ADME, organism-based; set-up: route oral, dose 5 mg/kg, time <=24; settings: in vivo
[12] = Volume of distribution at steady state in Lewis rat at 1 mg/kg, iv measured up to 24 hrs by LC-MS/MS method; type: ADME, organism-based; settings: in vivo, read-out: Vdss
[13] = Distribution coefficient between octanol and aqueous buffer, logD of the compound in pH 7.2 buffer
[14] = Half life in Lewis rat at 1 mg/kg, iv measured up to 24 hrs by LC-MS/MS method; type: ADME, organism-based; settings: in vivo
[15] = Volume of distribution at steady state in Lewis rat at 5 mg/kg, po measured up to 24 hrs by LC-MS/MS method; type: ADME, organism-based; settings: in vivo
[16] = Clearance in Lewis rat at 5 mg/kg, po measured up to 24 hrs by LC-MS/MS method; type: ADME, organism-based; settings: in vivo

bioavailability [1]: 45.5%
remaining at 2 h, 1 µM [2]: 96.1%
half-life [3]: 2.43 h
clearance [4]: 10.5 mL/min/kg
solubility [5]: 16.3 µg/mL (≈ 43.9 µM)
MRT [6]: 1.34 h
Tmax [7]: 1 h
AUC at 24 h [8]: 1590 ng·h/mL
MRT [9]: 4.36 h
AUC at 24 h [10]: 3610 ng·h/mL
Cmax [11]: 659 ng/mL
Vd [12]: 1.8 L/kg
logD [13]: 0.24
half-life [14]: 1.96 h
Vdss [15]: 4.88 L/kg
clearance [16]: 23.2 mL/min/kg
Compound: CCS(=O)(=O)N1CC(CC#N)(n2cc(-c3ncnc4[nH]ccc34)cn2)C1 [BARICITINIB]
